# Patent US20250179126A1, “A NOVEL PEPTIDE FROM A PHOTOSYNTHETIC BACERIUM DIRECTLY TARGETS MITOCHONDRIA TO TRIGGER APOPTOSIS IN ADVANCED PROSTATE CANCER CELLS” (priority 2022, published 2025)
# Columns and labels:
# [1] = test system: PC3 xenograft tumors; experiment: PC3 xenograft animal model; format: in vivo, athymic mice
# Source text: FIG. 10A-10D: Inhibition of PC3 xenograft tumor growth. 10A, When the s.c. tumors reached ˜5 mm, athymic mice were randomized into control (PBS) and i.p. treatment groups. Mean±SE (N=5). *P<0.01. […] 10C, At the end of treatment, tumors were dissected and weighed. * P<0.01. 10D, In sections of tumors from the control group, there was a marked increase in Ki-67-positive proliferating cells (stained brown and counterstained with haematoxylin, ×40), and only a few apoptotic cells were observed, as determined by TUNEL and caspase-3 (Casp-3) staining. There was an apparent sharp reduction in Ki-67-positive proliferating cells and a higher number of TUNEL-positive apoptotic cells in the aurB-treated group compared to the control group. Similarly, Casp-3 expression in aurB-treated tumors was increased markedly compared with that in untreated controls.
# Xenograft animal model: Human prostate cancer cells (PC3) were injected s.c. into the right flanks of 5- to 6-week-old male athymic mice 78. When tumors reached 5 mm in diameter, animals were randomized into control and treatment groups. […] All animals were weighed twice a week. At necropsy, tumors were dissected and weighed. Statistical comparisons were performed by one-way analysis of variance (ANOVA) (control vs treatment). Tumor samples were fixed overnight in 10% buffered formalin. Fixation was followed by dehydration, clearing and infiltration. Samples were then embedded in paraffin, and 4 μm sections were cut on a microtome. Ki67 (LabVision) staining was performed on the tissue sections using a Vector Vectastain Elite ABC Kit. The TUNEL assay was performed on the sections using a Millipore Sigma ApopTag® Peroxidase In Situ Apoptosis Detection Kit.
# [2] = test system: PC3 cells; experiment: JC-1 mitochondrial membrane potential assay; format: cell-based, human
# Protocol: Cells were stained by using JC-1 Mitochondrial Membrane Potential Assay Kits according to the manufacturer's instructions to measure mitochondrial membrane potential, and fluorescence was measured by flow cytometry. 9B, Caspase-3 is involved in aurB-induced apoptosis. […] The inhibitor was used at the indicated concentrations. Mean±SE (N=3).
# JC-1 dye (Invitrogen) was used to determine mitochondrial membrane potential. […] After washing with PBS, trypsinized PC3 cells were incubated with JC-1 dye and analyzed by FACS.
# [3] = test system: PC3 cells; experiment: Annexin-V apoptosis assay by flow cytometry, PC3; format: cell-based, human; conditions: PC3, 48 hr; Ptxl 1 nM, p28 50 μM, aurA/aurB 0.5-50 μM
# Protocol: FIG. 7A-7D: Determination of apoptotic cell death. Prostate cancer cell lines (7A: LNCaP, 7B: DU145 and 7C: PC3) and normal prostate CRL11611 cells (7D) were exposed to the indicated agents for 48 hr and stained using apoptosis assay kits according to the manufacturer's instructions. The samples were analyzed by flow cytometry. Mean±SE (N=3).
# After 48 hr, annexin-V apoptosis assays (Thermo Fisher Scientific) were conducted to detect apoptotic cells. At least 10,000 cells in each case were analyzed by FACS (RRC, UIC).
# [4] = tumor sections, aurB 5 mg/kg daily i.p.
substance,measurement,setting,value
LVN GGD DVA AAV NTA AQN NAD ALF VPPP (LVNGGDDVAAAVNTAAQNNADALFVPPP) [aurB],tumor weight,"[1]; at end of treatment, aurB 5 mg/kg daily i.p.",significantly decreased tumor weight
same,tumor growth inhibition vs PBS control,"[1]; end of treatment, four weeks i.p., aurB 5 mg/kg daily, Ptxl 10 mg/kg once a week",~65%
same,antitumor effect on PC3 tumor growth,"[1]; four weeks i.p., aurB 5 mg/kg daily, p28 10 mg/kg daily",significantly inhibited
same,"behavioral change, body weight",[1]; four weeks of i.p. treatment,without inducing either a behavioral change or a loss in body weight
same,Ki-67-positive proliferating cells in tumors,[1]; [4],substantially reduce the number of proliferating Ki-67-positive cells
same,TUNEL-positive apoptotic cells in tumors,[1]; [4],number of apoptotic cells was increased
same,caspase-3-positive cancer cells in tumors,[1]; [4],substantial increase in caspase-3-positive cancer cells
same,change of mitochondrial membrane potential (JC-1),"[2]; PC3, 1 μM",17%
same,change of mitochondrial membrane potential (JC-1),"[2]; PC3, 10 μM",21%
same,change of mitochondrial membrane potential (JC-1),"[2]; PC3, 100 μM",32%
same,effect on mitochondrial membrane potential (JC-1),"[2]; PC3, 1, 10 and 100 μM",dose-dependently increased
same,apoptotic cell death,[3],induced significant dose-dependent apoptosis
